The values that follow come from PubChem BioAssay (NCI).

Among the test systems are HCT-116 colon; HOP-92 NSCLC; KM12 colon; MDA-N; NCI-H460 lung; NCI/ADR-RES ovarian; RPMI-8226 leukemia; SK-MEL-5 melanoma; SNB-19 CNS; UACC-62 melanoma.
Holding throughout (assay): NCI anticancer screen, dose series, 48 h

Where “and” joins values, the source holds several entries; their conditions need not be identical. Equal values may be shown once.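 Interpolation was linear, between the two tested concentrations surrounding the appropriate level; five concentrations were tested over 48 hours in 96-well plates. Abbreviation: GI50, concentration required for 50% inhibition of growth. TGI marks complete inhibition of growth.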

Turning to `O=C(O)CC1NCc2cc3ccccc3nc21` (stereo not drawn), the TGI in the assay with HCT-116 colon, in the assay with HOP-92 NSCLC, in the assay with KM12 colon, in the assay with MDA-N, in the assay on NCI-H460 lung and with NCI/ADR-RES ovarian was > 100 µM throughout. Besides, the TGI with RPMI-8226 leukemia, with SK-MEL-5 melanoma, in the assay with SNB-19 CNS and in the assay with UACC-62 melanoma was > 100 µM in each case.
As for `COc1ccc2cc(CN3CCC(C4CCNCC4)CC3)ccc2c1`, the TGI in the assay with HCT-116 colon came to 3.73 µM; with HOP-92 NSCLC, 5.75 µM; in the assay with KM12 colon, 5.25 µM; in the assay with MDA-N, 4.19 µM; with NCI-H460 lung, 4.4 µM; in the assay on NCI/ADR-RES ovarian, 21 µM. The TGI with RPMI-8226 leukemia was determined as 4.61 µM; with SK-MEL-5 melanoma, 3.1 µM; in the assay with SNB-19 CNS it was 18.3 µM; with UACC-62 melanoma, 3.87 µM.
Regarding `CC(=O)OCC1OC(Oc2cc(C)c(O)cc2C/C=C(\C)CC/C=C(\C)CC(=O)CC(C)C)C(O)C(OC(C)=O)C1OC(C)=O` (stereo not drawn), the TGI with HCT-116 colon is > 50 µM; with HOP-92 NSCLC it was > 50 µM; in the assay on KM12 colon, 29.4 µM; in the assay on MDA-N, > 50 µM; with NCI-H460 lung, 40 µM; in the assay with NCI/ADR-RES ovarian, 31.9 µM. The TGI in the assay with RPMI-8226 leukemia was 21.4 µM; in the assay with SK-MEL-5 melanoma, 14.9 µM; with SNB-19 CNS it was > 50 µM; in the assay with UACC-62 melanoma it was 39.1 µM.
As to `CCCCCCCCCCC1OC([C@@H](O)CC[C@H](O)C2CC[C@@H](CCCCCCCC(O)CC3=CC(C)OC3=O)O2)CCC1O` (stereo partly drawn), the GI50 in the assay on HCT-116 colon was 6 µM; in the assay on HOP-92 NSCLC, 3.03 µM; with KM12 colon, 10.3 µM; in the assay with NCI-H460 lung it was 5.08 µM; in the assay on NCI/ADR-RES ovarian, 6.4 µM; in the assay with SK-MEL-5 melanoma it was 1810 nM. Moreover, in the assay with SNB-19 CNS, the GI50 was 2900 nM. Moreover, the TGI in the assay with HCT-116 colon, in the assay on HOP-92 NSCLC, with KM12 colon, in the assay on MDA-N, in the assay with NCI-H460 lung and with NCI/ADR-RES ovarian was > 25 µM each time. Also, the TGI was 15.4 µM in the assay with RPMI-8226 leukemia; 9.13 µM and > 10.5 µM in the assay on SK-MEL-5 melanoma; > 25 µM with SNB-19 CNS; > 25 µM in the assay with UACC-62 melanoma.
Turning to `CC1OC(OC2C(OC(=O)[C@]34CCC(C)(C)C[C@H]3C3=CC[C@@H]5[C@@]6(C)CC[C@H](OC7OC(C(=O)O)C(O)C(OC8OCC(O)C(O)C8O)C7O)C(C)(C)[C@@H]6CC[C@@]5(C)[C@]3(C)CC4)OCC(O)C2O)C(O)C(OC2OCC(O)C(O)C2O)C1OC1OCC(O)C(OC2OCC(O)C(O)C2O)C1O` (stereo partly drawn), the GI50 with HCT-116 colon was 8.78 µM and 22.9 µM; in the assay on HOP-92 NSCLC, 6.12 µM and 13 µM; with KM12 colon, 4.39 µM and 11.3 µM; in the assay on MDA-N, 7.14 µM and 16.4 µM; with NCI-H460 lung, 49.5 µM and > 100 µM; in the assay on RPMI-8226 leukemia, 5.62 µM and 16.9 µM. Besides, the TGI with HCT-116 colon is 62.5 µM and > 100 µM; in the assay on HOP-92 NSCLC it was 17.4 µM and 26.6 µM; in the assay on KM12 colon, 15.8 µM and 23.7 µM; in the assay with MDA-N, 19.8 µM and 31.8 µM; in the assay with NCI-H460 lung, > 100 µM; in the assay on NCI/ADR-RES ovarian, 24.4 µM and 67.7 µM. Also, the TGI with RPMI-8226 leukemia was 19.8 µM and 35.3 µM; with SK-MEL-5 melanoma, 29.6 µM and 35 µM; in the assay on SNB-19 CNS, 23.2 µM and 44.2 µM; in the assay with UACC-62 melanoma, 36.1 µM and 58.1 µM.
`O=c1[nH]nc(Cc2ccccc2)n1CCO`: the TGI in the assay on HCT-116 colon, with HOP-92 NSCLC, in the assay on KM12 colon, in the assay with MDA-N, in the assay on NCI-H460 lung and in the assay with NCI/ADR-RES ovarian was > 100 µM each time. Moreover, the TGI with RPMI-8226 leukemia, with SK-MEL-5 melanoma, in the assay with SNB-19 CNS and in the assay with UACC-62 melanoma was > 100 µM in each case.
For the molecule `CCCCCCCCCCCCOCCCOP(=O)([O-])OCC[N+](C)(C)C`, the TGI in the assay with HCT-116 colon is > 86.8 µM; with HOP-92 NSCLC, 52.8 µM; with KM12 colon, 9.77 µM; with MDA-N, 19.3 µM; in the assay on NCI-H460 lung, > 70 µM; with NCI/ADR-RES ovarian it was > 100 µM. Moreover, the TGI in the assay with RPMI-8226 leukemia was 31.6 µM; in the assay with SK-MEL-5 melanoma, > 71.3 µM; with SNB-19 CNS, 46.9 µM; in the assay on UACC-62 melanoma, > 83.9 µM.
As for `CCCCON1C[C@H](OC(C)=O)C(OC(C)=O)[C@H](OC(C)=O)C1` (stereo partly drawn), the TGI with HCT-116 colon, in the assay on HOP-92 NSCLC, with KM12 colon, in the assay on MDA-N, in the assay with NCI-H460 lung and with NCI/ADR-RES ovarian was > 100 µM throughout. The TGI in the assay with RPMI-8226 leukemia, in the assay on SK-MEL-5 melanoma, in the assay on SNB-19 CNS and with UACC-62 melanoma was > 100 µM throughout.
Turning to `c1c[nH]c(C23C4C5C6C4C2C6C53)n1` (stereo not drawn), the TGI in the assay on HCT-116 colon, in the assay on HOP-92 NSCLC, in the assay with KM12 colon, in the assay with MDA-N, with NCI-H460 lung and in the assay on NCI/ADR-RES ovarian was > 100 µM throughout. The TGI with RPMI-8226 leukemia, in the assay on SK-MEL-5 melanoma, in the assay on SNB-19 CNS and in the assay on UACC-62 melanoma was > 100 µM throughout.
Regarding `CCOC(=O)C(Cc1cccn1C(=O)OC(C)(C)C)[N+](=O)[O-]` (stereo not drawn), the TGI in the assay with HCT-116 colon was 51.3 µM; in the assay on HOP-92 NSCLC, 74.2 µM; in the assay on KM12 colon, 55.5 µM; in the assay on MDA-N, 90.4 µM; in the assay with NCI-H460 lung it was 53.4 µM; with NCI/ADR-RES ovarian, > 100 µM. Further, the TGI in the assay with RPMI-8226 leukemia is 45.1 µM; with SK-MEL-5 melanoma, 37.9 µM; with SNB-19 CNS, 75.5 µM; with UACC-62 melanoma, 42.9 µM.
`O=C(NCc1cccc2ccccc12)N/N=C\c1ccc(Cl)cc1`: the TGI is > 100 µM with HCT-116 colon; > 100 µM in the assay with HOP-92 NSCLC; > 100 µM in the assay with KM12 colon; 75.7 µM in the assay with MDA-N; > 100 µM in the assay on NCI-H460 lung; > 100 µM with NCI/ADR-RES ovarian. Besides, the TGI in the assay on RPMI-8226 leukemia, in the assay with SK-MEL-5 melanoma, in the assay with SNB-19 CNS and in the assay on UACC-62 melanoma was > 100 µM throughout.
Consider `Oc1ccc(Cl)cc1CN1CCN(Cc2cc(Cl)ccc2O)C1`, for which the TGI was 1.34 µM with HCT-116 colon; 5.15 µM in the assay with HOP-92 NSCLC; 3.49 µM in the assay with KM12 colon; 6.43 µM in the assay with MDA-N; 4.96 µM with NCI-H460 lung; 1.1 µM with NCI/ADR-RES ovarian. The TGI with RPMI-8226 leukemia is 15.3 µM; with SK-MEL-5 melanoma, 2.22 µM; in the assay with SNB-19 CNS, 12.2 µM; in the assay on UACC-62 melanoma, 3.94 µM.
